Measured values: patent US20250170099A1, “TREATMENT OF POSTNATAL DEPRESSION” (GH RESEARCH IRELAND LIMITED, priority 2022, published 2025)

How the values were obtained:
human hepatocytes [1] = experiment: Metabolite identification in human hepatocytes; assay type: in vitro ADME; settings: for relative proportion of compounds identified: 5-MeO-DMT 10 μM, up to 120 minutes
Experimental: All samples were stored at −80° C. (nominal) prior to analysis.
Appropriate blank and control samples were also analysed. […] (nominal).

human plasma protein = experiment: Binding to human plasma protein (unbound fraction); assay type: in vitro ADME
Experimental: Binding to human plasma protein was determined. Reported are the unbound fraction (fu) for three replicates as well as the mean unbound fraction, the standard deviation and the mean % recovery (Table 8).

human hepatocytes [2] = experiment: Metabolic stability in Hμrel human hepatocyte co-culture; assay type: in vitro ADME; settings: for relative LC/MS peak area: 0 h
Experimental: The incubations were performed using 1 and 10 μM initial concentrations and sampling at 0, 1, 2, 4, 8, 24, 48, and 72 hours (h) time points. The samples were analysed using UPLC/QE-orbitrap-MS.

[3] = Pharmacokinetics of 5-MeO-DMT and bufotenine after inhalation; assay type: in vivo, human

In the case of 5-Methoxyindole acetic acid [5-MIAA], the “presence in subsequent assays” value (human hepatocytes [1]) is reported as “predominant metabolite”, the “plasma binding (mean fraction unbound)” value (human plasma protein) is reported as ~50% and the “time for removal from circulation by renal clearance” value (human plasma protein; from glomerular filtration rate 90-120 ml/min) is reported as 1 to 2 h. The “disappearance with stromal cell controls” value (human hepatocytes [2]) was “no disappearance”, the “in vitro intrinsic clearance” value (human hepatocytes [2]; 1 μM, human hepatocytes) was 0.15 μl/min/million cells and the remaining abundance (human hepatocytes [2]; 72 h, hepatocytes, 1 and 10 μM) was 75-82%.

With `CN(C)CCc1c[nH]c2ccc(O[C@@H]3O[C@H](C(=O)O)[C@@H](O)[C@H](O)[C@H]3O)cc12` [Bufotenine glucuronide] the “detection in the hepatocyte assay” value (human hepatocytes [1]) was “not detected”.

With `CN(C)CCc1c[nH]c2ccc(O)cc12` [bufotenine, Bufotenine] the “relative proportion of compounds identified” value (“relative proportion” below) (human hepatocytes [1]) was 5%, the “detection in human serum” value ([3]; 15 minutes after administration of 5-MeO-DMT) was “In no case is it detected” and the bufotenine blood concentration ([3]; from 15 min after 5-MeO-DMT inhalation, LLOQ) was < 25 pg/mL.

For `COc1ccc2[nH]cc(CCO)c2c1` [5-methoxytryptophol, 5-Methoxyindole-3-ethanol], the “presence in subsequent assays” value (human hepatocytes [1]) was “repeatedly failed to detect”, the “relative proportion” value (human hepatocytes [1]) was 25% and the “disappearance with stromal cell controls” value (human hepatocytes [2]) was “no disappearance”. For the same compound, the “relative LC/MS peak area” value (human hepatocytes [2]; 1 μM, hepatocytes) was 100%, the “relative LC/MS peak area” value (human hepatocytes [2]; 1 μM, stromal cells) was 100% and the “relative LC/MS peak area” value (human hepatocytes [2]; 10 μM, hepatocytes) was 100%. For the same compound, the “relative LC/MS peak area” value (human hepatocytes [2]; 10 μM, stromal cells) was 100%.

In the case of `COc1ccc2[nH]cc(CC[N+](C)(C)[O-])c2c1` [5-MeO-DMT-N-oxide], the “relative proportion” value (human hepatocytes [1]) is reported as 1%.
